Several values for one entry are separate records, joined by “and”; a condition that tells them apart may be missing. Equal values may be shown once.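 48-hour exposure; five concentrations; linearly interpolated endpoints. GI50 is the concentration that inhibits growth by half. At the TGI there is no net growth.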
Assays:
Experiment in all cases: DTP human tumour cell line panel, 48 h
COLO 205 colon = test system: COLO 205 colon
SR leukemia = test system: SR leukemia
UACC-257 melanoma = test system: UACC-257 melanoma
MDA-MB-435 = test system: MDA-MB-435
HOP-92 NSCLC = test system: HOP-92 NSCLC
NCI-H23 lung = test system: NCI-H23 lung
HT29 colon = test system: HT29 colon
SN12C renal = test system: SN12C renal
EKVX NSCLC = test system: EKVX NSCLC
NCI-H226 lung = test system: NCI-H226 lung

| Structure (SMILES) | TGI (COLO 205 colon) | TGI (SR leukemia) | TGI (UACC-257 melanoma) | TGI (MDA-MB-435) [µM] | TGI (HOP-92 NSCLC) | TGI (NCI-H23 lung) | TGI (HT29 colon) | TGI (SN12C renal) | TGI (EKVX NSCLC) | TGI (NCI-H226 lung) | GI50 (COLO 205 colon) | GI50 (SR leukemia) | GI50 (UACC-257 melanoma) | GI50 (MDA-MB-435) | GI50 (HOP-92 NSCLC) | GI50 (NCI-H23 lung) | GI50 (HT29 colon) | GI50 (SN12C renal) | GI50 (EKVX NSCLC) | GI50 (NCI-H226 lung) |
| --- | --- | --- | --- | --- | --- | --- | --- | --- | --- | --- | --- | --- | --- | --- | --- | --- | --- | --- | --- | --- |
| O=C1NC(c2ccccc2Cl)Nc2ccccc21 (stereo not given) | > 54.1 µM | > 100 µM | > 100 µM | 4.76 | > 100 µM | > 100 µM | > 100 µM | > 100 µM | > 100 µM | > 84.6 µM | – | – | – | – | – | – | – | – | – | – |
| CC(C)c1ccc2c(c1)CCC1C2CCCC1(C)NCc1ccccc1 (stereo not given) | 1.11 µM | 6.3 µM | 6.13 µM | 9.64 | 4.13 µM | 19.7 µM | 2.7 µM | 19.2 µM | 24.6 µM | 18.4 µM | 0.332 µM | 1.8 µM | 2.52 µM | 2790 nM | 1.95 µM | 5.48 µM | 0.78 µM | 5.56 µM | 10.7 µM | 5.38 µM |
| C/C(=C\c1csc(C)n1)[C@@H]1C[C@@H]2O[C@]2(C)CCC[C@H](C)[C@H](O)[C@@H](C)C(=O)C(C)(C)[C@@H](O)CC(=O)N1 | 0.000438 µM | 0.00332 µM | 0.000277 µM | 0.000143 | < 1e-05 µM | 0.000412 µM | 0.000537 µM | 0.000418 µM | 0.000626 µM | 0.000652 µM | 0.000182 µM | 0.00102 µM | 0.000138 µM | 0.0655 nM | < 1e-05 µM | 0.00019 µM | 8.23e-05 µM | 0.000214 µM | 0.000337 µM | 0.000388 µM |
| O=C1NC(=O)C2C3C=CC(C12)C1C2C(=O)NC(=O)C2C31 (stereo not given) | 198 µM and > 892 µM | 250 µM and > 871 µM | 250 µM and > 1000 µM | > 1000 | 230 µM and > 1000 µM | 250 µM and > 1000 µM | 194 µM and > 1000 µM | 250 µM and > 1000 µM | 250 µM and > 1000 µM | 250 µM and > 762 µM | > 62.6 µM and 108 µM | 68.9 µM and 108 µM | > 1000 µM | > 250000 nM | > 1000 µM | 727 µM | 657 µM | 419 µM | 543 µM | > 484 µM |
| CC1=C(C(=O)Nc2ccc3[nH]ncc3c2)C(c2ccc(F)cc2)N=C(c2ccc(C(F)(F)F)nc2)N1 (stereo not given) | > 25 µM | > 25 µM | > 25 µM | 12 | 7.6 µM | > 25 µM | > 25 µM | > 25 µM | > 25 µM | > 25 µM | > 25 µM | 6.43 µM | 15.7 µM | 4970 nM | 0.548 µM | 12.8 µM | 11.5 µM | > 22.9 µM | 6.19 µM | 3.99 µM |
| COc1nc(N)nc2nc[nH]c12 | 419 µM and > 800 µM and > 1000 µM | 500 µM and > 800 µM and > 849 µM | 500 µM and > 800 µM and > 1000 µM | > 1000 | 480 µM and 800 µM and > 1000 µM | > 1000 µM | 500 µM and > 800 µM and > 1000 µM | 500 µM and 800 µM and > 1000 µM | > 387 µM and 800 µM and > 1000 µM | 458 µM and 800 µM and > 1000 µM | > 1000 µM | > 800 µM and 249 µM | > 1000 µM | > 801000 nM | 511 µM and 596 µM | > 800 µM and 888 µM | > 800 µM | 536 µM and 552 µM | 651 µM and > 759 µM | 400 µM and 380 µM |
| CNS(=O)(=O)Nc1nccc(Cc2c(C)c3ccc(Oc4ncccn4)cc3oc2=O)c1F | > 100 µM | > 100 µM | 0.0866 µM and 0.0784 µM | > 100 | 0.406 µM and 1.93 µM | > 100 µM | > 100 µM | > 100 µM | > 100 µM | > 100 µM | 0.0176 µM and 0.00703 µM | > 100 µM | 0.0153 µM and 0.0116 µM | 52.6 nM and 39.5 nM | < 0.0152 µM and 0.0613 µM | 0.061 µM and 0.148 µM | 0.0278 µM and 0.0231 µM | 13.1 µM and > 8.08 µM | 0.438 µM and 0.351 µM | 6.82 µM and > 10 µM |
| O=C1c2ccccc2-c2c1c1c(O)cccc1n2Cc1ccccc1 | > 100 µM | > 100 µM | 68.5 µM | > 100 | 19.8 µM | 29.7 µM | > 100 µM | > 100 µM | 69.2 µM | > 100 µM | 47.4 µM | 30.5 µM | 17.7 µM | 19100 nM | 4.22 µM | 5.67 µM | 38.2 µM | 14.1 µM | 16.5 µM | > 100 µM |
| O=S(=O)(Nc1ccccc1)c1ccc(C2CC3(Cl)C(Cl)=C(Cl)C2(Cl)C3(Cl)Cl)cc1 (stereo not given) | 3.48 µM | 5.2 µM | 6.27 µM | 5.44 | 5.08 µM | 7.35 µM | 5.41 µM | 3.3 µM | 8.37 µM | 4.47 µM | 1.98 µM | 2.08 µM | 2.64 µM | 2340 nM | 1.84 µM | 2.8 µM | 2.37 µM | 1.71 µM | 3.02 µM | 1.87 µM |
| O=C(O)CSc1cc(NS(=O)(=O)c2ccc(Br)cc2)c2ccccc2c1O | 28.4 µM | > 68.1 µM | 12.1 µM | 3.41 | 31.6 µM | 38 µM | 78.1 µM | 5.44 µM | 32.8 µM | 44.9 µM | 13.1 µM | 17.8 µM | 4.95 µM | 1880 nM | 13.5 µM | 7.25 µM | 18.1 µM | 2.27 µM | 13.8 µM | 20.1 µM |
| Cc1ccc(-c2nc([P+](c3ccccc3)(c3ccccc3)c3ccccc3)c(N3CCOCC3)o2)cc1 | 1.68 µM | 5.33 µM | 3.42 µM | 1.81 | 2.44 µM | 7.45 µM | 11 µM | 4.16 µM | 9.99 µM | 8.03 µM | 0.343 µM | 0.418 µM | 0.341 µM | 351 nM | 0.3 µM | 0.456 µM | 0.357 µM | 0.335 µM | 1.08 µM | 0.724 µM |
| Cn1cc(-c2ccc3c(c2)ncn3-c2cc(NS(=O)(=O)C3CC3)cc(-c3ccc(F)cc3F)c2)cn1 | > 100 µM | > 100 µM | > 100 µM | > 100 | 62.4 µM | > 100 µM | 38.3 µM | > 100 µM | > 100 µM | 94.4 µM | 24.8 µM | 6 µM | 27.5 µM | 21900 nM | 2.83 µM | 20.6 µM | 10.3 µM | 2.99 µM | 21.3 µM | 27 µM |
| O=C1C[C@@H]2OCC=C3C[N+]4([O-])CC[C@]56c7ccccc7N1[C@H]5[C@H]2[C@H]3C[C@@H]64 (stereo not given in full) | > 100 µM | > 100 µM | > 100 µM | > 100 | > 100 µM | > 100 µM | > 100 µM | > 100 µM | > 100 µM | > 100 µM | > 100 µM | > 100 µM | > 100 µM | > 100000 nM | > 100 µM | > 100 µM | > 100 µM | > 100 µM | > 100 µM | > 100 µM |
| CC(=O)O[C@H]1C[C@@H]2[C@@]3(C)CC[C@H]4C[C@@]4(C)[C@@H]3CC[C@@]2(C)C2=CCC3=C(COC3=O)[C@]21C | > 100 µM | > 100 µM | > 100 µM | 46.9 | 35 µM | 49.9 µM | > 100 µM | 38.3 µM | 35 µM | 32.6 µM | 34 µM | > 100 µM | 34.2 µM | 22600 nM | 16.7 µM | 20.1 µM | 31.6 µM | 18.7 µM | 17.6 µM | 16 µM |
| O=C1[C@H](Cc2ccc(O)cc2)N2C(=O)CCN(C(=O)NCc3ccccc3)[C@H]2CN1Cc1cccc2ccccc12 | 2.76 µM | > 54.1 µM | 23.9 µM | 21.4 | 2.4 µM | 34.5 µM | 19.3 µM | > 100 µM | > 100 µM | 21.4 µM | 0.748 µM | 3.19 µM | 2.72 µM | 3960 nM | 0.418 µM | 4.05 µM | 2.85 µM | 4.18 µM | 3.81 µM | 1.99 µM |
